In patent US20240398817A1, “CARDIO- AND RENOSAFE ANTIDIABETIC THERAPY” (priority 2018, published 2024):

Test system: patients with type 2 diabetes at high vascular risk
Test: Cardiovascular and Renal Outcomes Trial: linagliptin 5 mg once daily vs placebo on top of standard of care
Assay type: in vivo
Conditions: for Hazard ratio for hospitalised heart failure: vs placebo
Experimental: The effect of linagliptin on cardiovascular risk in adult patients with type 2 diabetes mellitus and with increased CV risk evidenced by a history of established macrovascular or renal disease (e.g. as defined herein) was evaluated in a multi-center, multi-national, randomized, double-blind parallel group trial. The trial compared the risk of experiencing a major adverse cardiovascular event (MACE) between linagliptin and placebo when these were added to and used concomitantly with standard of care treatments for diabetes (HbA1c), cardiovascular risk factors and renal disease.
The primary endpoint in this trial was the time to first occurrence of three point (3P) MACE. A major adverse cardiac event was defined as a cardiovascular death or a nonfatal myocardial infarction (MI) or a nonfatal stroke. The statistical analysis plan tested for non-inferiority for the occurrence of (3P) MACE. […] The secondary endpoint was a renal composite, defined as renal death or sustained end stage renal disease or sustained decrease of 40% or more in eGFR.
Type 2 diabetes patient with insufficient glycemic control (naïve or pre-treated with any antidiabetic background medication, excluding treatment with GLP-1 receptor agonists, DPP-4inhibitors or SGLT-2 inhibitors if ≥consecutive 7 days, e.g. having HbA1c 6.5-10%), and high risk of cardiovascular events, e.g. defined by: • albuminuria (micro or macro) and previous macrovascular disease: e.g. defined according to Condition I as indicated below; • and/or • impaired renal function: e.g. as defined according to Condition II as indicated below;
Background and aims: People with type 2 diabetes (T2D) are at increased risk for hospitalization for heart failure (hHF), particularly in the setting of concomitant cardiovascular (CV) and/or kidney disease. […] Here we present analyses of HF outcomes with the DPP-4 inhibitor linagliptin (LINA) vs. placebo (PBO) from a Cardiovascular and Renal Outcomes Trial assessing cardiovascular safety and renal microvascular outcome in patients with type 2 diabetes at high vascular risk, a large CV outcomes trial that enrolled participants with T2D at high risk for hHF due to concomitant CV and/or chronic kidney disease. Materials and methods: People with T2D and concomitant CV and/or kidney disease were randomized to receive LINA 5 mg, or PBO once daily (1:1), on top of standard of care. All hHF, CV outcomes, and deaths were centrally adjudicated, with individual and composite HF-related outcomes analyses comparing LINA vs. placebo. Investigator-reported HF-related adverse events, whether or not confirmed by adjudication, were also analyzed. A Cox proportional hazards model adjusting for region and history of HF was used for analyses of first events. Recurrent hHF events were analyzed using a negative binomial model.
Methods: The present Cardiovascular and Renal Outcomes Trial randomized people with T2D and i) concomitant CV disease with UACR >30 mg/g or ii) prevalent CKD (i.e. GFR <45 ml/min/1.73m2 and/or UACR >200 mg/g) to receive the DPP-4 inhibitor linagliptin (5 mg) or placebo once daily in a double-blind fashion. The primary CV endpoint was 3P-MACE, with a key secondary kidney endpoint (adjudicated ESKD, renal death, or sustained ≥40% decrease in eGFR from baseline) and other renal outcomes (including albuminuria and eGFR slope) also assessed. Subgroups were assessed by baseline kidney function (eGFR ≥/<45 ml/min/1.73m2and eGFR ≥/<30, 45 or 60 ml/min/1.73m2).
Adults with type 2 diabetes, HbA1c 6.5-10.0% inclusive, and high CV risk were eligible for inclusion. […] Macrovascular disease eligibility criteria was based on documented and confirmed history of myocardial infarction, coronary artery disease, stroke, carotid artery disease, or peripheral artery disease. Participants with end-stage kidney disease (ESKD), defined as eGFR <15 or requiring maintenance dialysis, were excluded.

[1] = Metformin-dose: Not on metformin
[2] = Prevalent kidney disease (eGFR<60 mL/min/1.73 m^2 or macroalbuminuria UACR >300 mg/g) No
[3] = Prevalent kidney disease (eGFR<60 mL/min/1.73 m^2 or macroalbuminuria UACR >300 mg/g) Yes
[4] = Prevalent kidney disease (eGFR<60 or UACR >300 mg/g) No
[5] = Prevalent kidney disease (eGFR<60 or UACR >300 mg/g) Yes

Q: With `CC#CCn1c(N2CCC[C@@H](N)C2)nc2c1c(=O)n(Cc1nc(C)c3ccccc3n1)c(=O)n2C` [Linagliptin, 1-[(4-methyl-quinazolin-2-yl)methyl]-3-methyl-7-(2-butyn-1-yl)-8-(3-(R)-amino-piperidin-1-yl)-xanthine] as the compound, how does the “Hazard ratio for hospitalised heart failure” value (History of heart failure Yes) read?
A: Its value is 0.88.

Q: What about the “3-point MACE: hazard ratio vs placebo” value (Insulin No) of the same compound?
A: The value was 0.88.

Q: And the “3-point MACE: patients with event/patients analyzed” value (Insulin No)?
A: The value was 139/1487.

Q: What about the “Key secondary kidney outcome: hazard ratio vs placebo” value (Insulin No) of the same compound?
A: Its value is 1.08.

Q: And the “Key secondary kidney outcome: patients with event/patients analyzed” value (Insulin No)?
A: The value was 101/1487.

Q: What about the “Patients with event/patients analysed, hospitalised heart failure” value (shortened to “Patients with event/patients analysed”) (Insulin No) of the same compound?
A: Its value is 40/1487.

Q: And the “Hazard ratio for hospitalised heart failure” value (Insulin No)?
A: Its value is 0.62.

Q: What about the “3-point MACE: hazard ratio vs placebo” value (Insulin Yes) of the same compound?
A: Its value is 1.10.

Q: What about the “3-point MACE: patients with event/patients analyzed” value (Insulin Yes) of the same compound?
A: The value was 295/2007.

Q: What about the “Key secondary kidney outcome: hazard ratio vs placebo” value (Insulin Yes) of the same compound?
A: The value was 1.01.

Q: And the “Key secondary kidney outcome: patients with event/patients analyzed” value (Insulin Yes)?
A: The value was 226/2007.

Q: What about the “Patients with event/patients analysed” value (Insulin Yes) of the same compound?
A: Its value is 169/2007.

Q: And the “Hazard ratio for hospitalised heart failure” value (Insulin Yes)?
A: The value was 1.00.

Q: What about the “Patients with event/patients analysed” value (Ischemic heart disease No) of the same compound?
A: Its value is 66/1465.

Q: What about the “Hazard ratio for hospitalised heart failure” value (Ischemic heart disease No) of the same compound?
A: The value was 1.04.

Q: And the “Patients with event/patients analysed” value (Ischemic heart disease Yes)?
A: The value was 143/2029.

Q: What about the “Hazard ratio for hospitalised heart failure” value (Ischemic heart disease Yes) of the same compound?
A: Its value is 0.85.

Q: And the “3-point MACE: hazard ratio vs placebo” value (Lipid lowering drugs No)?
A: The value was 0.90.

Q: What about the “3-point MACE: patients with event/patients analyzed” value (Lipid lowering drugs No) of the same compound?
A: Its value is 95/871.

Q: And the “Key secondary kidney outcome: hazard ratio vs placebo” value (Lipid lowering drugs No)?
A: The value was 1.13.

Q: And the “Key secondary kidney outcome: patients with event/patients analyzed” value (Lipid lowering drugs No)?
A: The value was 101/871.

Q: What about the “Patients with event/patients analysed” value (Lipid lowering drugs No) of the same compound?
A: Its value is 34/871.

Q: And the “Hazard ratio for hospitalised heart failure” value (Lipid lowering drugs No)?
A: The value was 1.01.

Q: What about the “3-point MACE: hazard ratio vs placebo” value (Lipid lowering drugs Yes) of the same compound?
A: The value was 1.06.

Q: What about the “3-point MACE: patients with event/patients analyzed” value (Lipid lowering drugs Yes) of the same compound?
A: The value was 339/2623.

Q: What about the “Key secondary kidney outcome: hazard ratio vs placebo” value (Lipid lowering drugs Yes) of the same compound?
A: Its value is 1.00.

Q: What about the “Key secondary kidney outcome: patients with event/patients analyzed” value (Lipid lowering drugs Yes) of the same compound?
A: Its value is 226/2623.

Q: And the “Patients with event/patients analysed” value (Lipid lowering drugs Yes)?
A: Its value is 175/2623.

Q: And the “Hazard ratio for hospitalised heart failure” value (Lipid lowering drugs Yes)?
A: The value was 0.88.

Q: And the “Patients with event/patients analysed” value (Loop diuretics No)?
A: Its value is 80/2530.

Q: And the “Hazard ratio for hospitalised heart failure” value (Loop diuretics No)?
A: The value was 0.97.

Q: What about the “Patients with event/patients analysed” value (Loop diuretics Yes) of the same compound?
A: The value was 129/964.

Q: What about the “Hazard ratio for hospitalised heart failure” value (Loop diuretics Yes) of the same compound?
A: Its value is 0.90.

Q: What about the “3-point MACE: hazard ratio vs placebo” value (Metformin No) of the same compound?
A: The value was 1.02.

Q: And the “3-point MACE: patients with event/patients analyzed” value (Metformin No)?
A: The value was 242/1613.

Q: What about the “Key secondary kidney outcome: hazard ratio vs placebo” value (Metformin No) of the same compound?
A: Its value is 0.99.

Q: What about the “Key secondary kidney outcome: patients with event/patients analyzed” value (Metformin No) of the same compound?
A: Its value is 212/1613.

Q: And the “Patients with event/patients analysed” value (Metformin No)?
A: The value was 138/1613.

Q: What about the “Hazard ratio for hospitalised heart failure” value (Metformin No) of the same compound?
A: The value was 0.97.

Q: What about the “3-point MACE: hazard ratio vs placebo” value (Metformin Yes) of the same compound?
A: Its value is 1.02.

Q: What about the “3-point MACE: patients with event/patients analyzed” value (Metformin Yes) of the same compound?
A: Its value is 192/1881.

Q: What about the “Key secondary kidney outcome: hazard ratio vs placebo” value (Metformin Yes) of the same compound?
A: The value was 1.11.

Q: What about the “Key secondary kidney outcome: patients with event/patients analyzed” value (Metformin Yes) of the same compound?
A: Its value is 115/1881.

Q: What about the “Patients with event/patients analysed” value (Metformin Yes) of the same compound?
A: Its value is 71/1881.

Q: And the “Hazard ratio for hospitalised heart failure” value (Metformin Yes)?
A: The value was 0.79.

Q: What about the “3-point MACE: hazard ratio vs placebo” value (Metformin-dose >1500 mg) of the same compound?
A: The value was 1.02.

Q: What about the “3-point MACE: patients with event/patients analyzed” value (Metformin-dose >1500 mg) of the same compound?
A: The value was 111/1094.

Q: And the “Key secondary kidney outcome: hazard ratio vs placebo” value (Metformin-dose >1500 mg)?
A: The value was 0.99.

Q: And the “Key secondary kidney outcome: patients with event/patients analyzed” value (Metformin-dose >1500 mg)?
A: The value was 62/1094.

Q: And the “Patients with event/patients analysed” value (Metformin-dose >1500 mg)?
A: Its value is 49/1094.

Q: What about the “Hazard ratio for hospitalised heart failure” value (Metformin-dose >1500 mg) of the same compound?
A: Its value is 0.88.

Q: And the “3-point MACE: hazard ratio vs placebo” value (Metformin-dose ≤1500 mg)?
A: The value was 1.02.

Q: And the “3-point MACE: patients with event/patients analyzed” value (Metformin-dose ≤1500 mg)?
A: Its value is 81/787.

Q: What about the “Key secondary kidney outcome: hazard ratio vs placebo” value (Metformin-dose ≤1500 mg) of the same compound?
A: Its value is 1.29.

Q: And the “Key secondary kidney outcome: patients with event/patients analyzed” value (Metformin-dose ≤1500 mg)?
A: Its value is 53/787.

Q: What about the “Patients with event/patients analysed” value (Metformin-dose ≤1500 mg) of the same compound?
A: Its value is 22/787.

Q: What about the “Hazard ratio for hospitalised heart failure” value (Metformin-dose ≤1500 mg) of the same compound?
A: Its value is 0.65.

Q: And the “3-point MACE: hazard ratio vs placebo” value [1]?
A: The value was 1.02.

Q: And the “3-point MACE: patients with event/patients analyzed” value [1]?
A: Its value is 242/1613.

Q: What about the “Key secondary kidney outcome: hazard ratio vs placebo” value [1] of the same compound?
A: Its value is 0.99.

Q: And the “Key secondary kidney outcome: patients with event/patients analyzed” value [1]?
A: The value was 212/1613.

Q: What about the “Patients with event/patients analysed” value [1] of the same compound?
A: The value was 138/1613.

Q: What about the “Hazard ratio for hospitalised heart failure” value [1] of the same compound?
A: The value was 0.97.

Q: What about the “Patients with event/patients analysed” value [2] of the same compound?
A: The value was 18/887.

Q: And the “Hazard ratio for hospitalised heart failure” value [2]?
A: The value was 0.69.

Q: What about the “Patients with event/patients analysed” value [3] of the same compound?
A: The value was 191/2606.

Q: And the “Hazard ratio for hospitalised heart failure” value [3]?
A: The value was 0.91.

Q: And the “3-point MACE: hazard ratio vs placebo” value [4]?
A: Its value is 0.88.

Q: And the “3-point MACE: patients with event/patients analyzed” value [4]?
A: The value was 60/887.

Q: And the “Key secondary kidney outcome: hazard ratio vs placebo” value [4]?
A: The value was 1.36.

Q: And the “Key secondary kidney outcome: patients with event/patients analyzed” value [4]?
A: The value was 19/887.

Q: And the “3-point MACE: hazard ratio vs placebo” value [5]?
A: Its value is 1.04.

Q: And the “3-point MACE: patients with event/patients analyzed” value [5]?
A: The value was 374/2606.

Q: What about the “Key secondary kidney outcome: hazard ratio vs placebo” value [5] of the same compound?
A: Its value is 0.99.

Q: What about the “Key secondary kidney outcome: patients with event/patients analyzed” value [5] of the same compound?
A: The value was 308/2606.

Q: What about the “3-point MACE: hazard ratio vs placebo” value (Race Asian) of the same compound?
A: Its value is 1.09.

Q: What about the “3-point MACE: patients with event/patients analyzed” value (Race Asian) of the same compound?
A: The value was 40/307.

Q: And the “Key secondary kidney outcome: hazard ratio vs placebo” value (Race Asian)?
A: Its value is 0.90.

Q: And the “Key secondary kidney outcome: patients with event/patients analyzed” value (Race Asian)?
A: Its value is 32/307.

Q: What about the “Patients with event/patients analysed” value (Race Asian) of the same compound?
A: The value was 14/307.

Q: What about the “3-point MACE: hazard ratio vs placebo” value (Race Black/African-American) of the same compound?
A: The value was 1.30.

Q: And the “3-point MACE: patients with event/patients analyzed” value (Race Black/African-American)?
A: The value was 31/194.

Q: And the “Key secondary kidney outcome: hazard ratio vs placebo” value (Race Black/African-American)?
A: Its value is 1.31.

Q: What about the “Key secondary kidney outcome: patients with event/patients analyzed” value (Race Black/African-American) of the same compound?
A: Its value is 35/194.

Q: And the “Patients with event/patients analysed” value (Race Black/African-American)?
A: The value was 15/194.
